According to US9688639B2, “Solid forms of fungicidal pyrazoles” (E. I. DU PONT DE NEMOURS AND COMPANY, priority 2013, dated 2017):

Key:
Format in all cases: physicochemical
[1] = Single crystal X-ray diffraction (calculated density); details: from single crystal X-ray data collected at −100° C.
Procedure: Suitable single crystals for polymorph Form A were grown from methanol evaporation. A colorless irregular plate with approximate dimensions of 0.520×0.300×0.060 mm was chosen for data collection and mounted on a polymer loop. Single crystal data was collected using a Bruker Platform goniometer with an Apex-II detector. The diffractometer was equipped with an incident beam monochromator using Mo-Kα radiation (λ=0.71073 Å) and a monocap collimator. The crystals were cooled in a −100° C. nitrogen flow during data collection.
The data were indexed and integrated using the Apex-II suite of programs including Sainplus and SADABS. The monoclinic cell parameters were determined to be: a=7.870(5) Å, b=28.037(16) Å, c=7.976(5) Å, beta=103.875(10) °, volume=1708.6(17) Å^3. The space group was determined to be P21/n. The molecular weight was 412.66 g/mol giving a calculated density of 1.604 g/cm^3, and μ(Mo)=2.59 mm^−1 for Z=4. Data reduction led to 3487 unique data from a two-theta range=5.46 to 52.92°. […]
The data were indexed and integrated using the Apex-II suite of programs including Sainplus and SADABS. The orthorhombic cell parameters were determined to be: a=14.285(3) Å, b=11.464(2) Å, c=20.010(3) Å, volume=3276.9(10) Å^3. The space group was determined to be Pbca. The molecular weight was 412.66 g/mol giving a calculated density of 1.673 g/cm^3, and μ(Mo)=2.70 mm^−1 for Z=8. […]

[2] = Temperature-dependent X-ray powder diffraction (stability with respect to temperature); details: heated from 25° C. at 10° C. per minute; pXRD
Procedure: To assess the stability of polymorph Form B of Compound 1 with respect to temperature, X-ray powder diffraction patterns were obtained while heating a sample of Form B from 25° C. to above its melting point. The measurement was conducted at the 5-IDD beam line at the Advanced Photon Source synchrotron located at the Argonne National Laboratory (Argonne, Ill., USA). A Differential-Scanning Calorimeter (DSC, Model DSC600, Linkam Scientific Instruments, Tadworth, U.K.) was mounted in vertical orientation to allow insertion of the DSC into the X-ray beam. The DSC was positioned in the beam line to accept a 100-200 μm square beam under high vacuum. The standard quartz window was replaced with polyimide film (Kapton®, 8 μm thickness, DuPont, Wilmington, Del., USA). An internal thermocouple was installed for temperature recording. A circular charged couple device (CCD) detector (Model Mar165, 165 mm diameter, Marresearch GmbH, Norderstedt, Germany) was used to detect the X-rays scattered from the sample. The detector was equipped with an aluminum cone that covered the detector and extended 100 mm from the face of the detector. This cone was equipped with a beam stop support and 5×3 mm lead beam stop. The cone was continuously purged with helium to minimize air scattering. […]

[3] = Differential Scanning Calorimetry; details: DSC, heated at 2° C./min
Procedure: Differential Scanning Calorimetry was used to study the crystalline phases of various samples of Compound 1. Data were obtained with a TA Instruments Q20-1220 Differential Scanning Calorimeter (V24.2 Build 107) using a standard cell (FC-03859). Samples were prepared by weighing between 4 and 5 mg of Compound 1 in a gold plated pan (Fauske and Associates, LLC, Burr Ridge, Ill.; part number DSC-M20). The corresponding lid was crimped tightly to the pan and the assembled crucible was inserted into the calorimeter. An empty crucible of the same type was prepared the same way and inserted as the reference. After the instrument was initialized, the sample was first equilibrated at 25° C. and then heated at 2° C./min to a maximum temperature of 225° C.

Row | calculated density [1] [g/mL] | temperature until which the form persists before it converts to polymorph Form A [2] [°C] | broad endotherm signal maximum (transition of Form B to Form A) [3] | heat of transition ([3]; Form B to Form A) [J/g] | Compound
1 | 1.604 | – | – | – | Cc1nn(C)c(Nc2c(F)cccc2Cl)c1-c1ccc(F)cc1Br [polymorph Form A, 4-(2-bromo-4-fluorophenyl)-N-(2-chloro-6-fluorophenyl)-1,3-dimethyl-1H-pyrazol-5-amine]
2 | 1.673 | 138 | about 148 °C | 12 | Cc1nn(C)c(Nc2c(F)cccc2Cl)c1-c1ccc(F)cc1Br [polymorph Form B, 4-(2-bromo-4-fluorophenyl)-N-(2-chloro-6-fluorophenyl)-1,3-dimethyl-1H-pyrazol-5-amine]
